Assays:
Estrogen receptor beta [1] = target: T1, Estrogen receptor beta (Homo sapiens, UniProt Q92731); experiment: Binding affinity to ERbeta
Estrogen receptor [2] = target: T2, Estrogen receptor (Homo sapiens, UniProt P03372); experiment: Antagonist potency at ERalpha expressed in human HEC1 cells by luciferase reporter gene assay; assay type: functional, cell-based, HEC-1
T2 sequence (P03372 whole entry): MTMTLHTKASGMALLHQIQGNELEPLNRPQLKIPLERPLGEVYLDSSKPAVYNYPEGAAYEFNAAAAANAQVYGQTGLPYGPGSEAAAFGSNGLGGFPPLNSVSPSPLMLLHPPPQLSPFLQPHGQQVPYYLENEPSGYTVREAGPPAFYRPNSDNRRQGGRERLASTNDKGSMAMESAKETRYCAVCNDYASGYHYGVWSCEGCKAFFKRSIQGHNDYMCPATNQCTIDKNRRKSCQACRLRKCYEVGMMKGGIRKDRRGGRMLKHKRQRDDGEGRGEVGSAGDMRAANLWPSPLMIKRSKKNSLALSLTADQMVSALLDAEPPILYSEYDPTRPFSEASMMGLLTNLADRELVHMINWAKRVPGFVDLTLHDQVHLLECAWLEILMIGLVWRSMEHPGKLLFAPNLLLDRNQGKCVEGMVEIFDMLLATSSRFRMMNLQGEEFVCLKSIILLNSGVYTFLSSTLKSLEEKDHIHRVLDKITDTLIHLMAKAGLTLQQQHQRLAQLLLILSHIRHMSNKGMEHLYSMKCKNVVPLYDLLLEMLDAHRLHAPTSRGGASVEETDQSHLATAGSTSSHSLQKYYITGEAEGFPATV

Estrogen receptor [3] = target: T2, Estrogen receptor; experiment: Binding affinity to ERalpha
Estrogen receptor beta [4] = target: T1, Estrogen receptor beta; experiment: Antagonist potency at ERbeta expressed in human HEC1 cells by luciferase reporter gene assay; assay type: functional, cell-based, HEC-1

T1 sequence (Q92731 whole entry): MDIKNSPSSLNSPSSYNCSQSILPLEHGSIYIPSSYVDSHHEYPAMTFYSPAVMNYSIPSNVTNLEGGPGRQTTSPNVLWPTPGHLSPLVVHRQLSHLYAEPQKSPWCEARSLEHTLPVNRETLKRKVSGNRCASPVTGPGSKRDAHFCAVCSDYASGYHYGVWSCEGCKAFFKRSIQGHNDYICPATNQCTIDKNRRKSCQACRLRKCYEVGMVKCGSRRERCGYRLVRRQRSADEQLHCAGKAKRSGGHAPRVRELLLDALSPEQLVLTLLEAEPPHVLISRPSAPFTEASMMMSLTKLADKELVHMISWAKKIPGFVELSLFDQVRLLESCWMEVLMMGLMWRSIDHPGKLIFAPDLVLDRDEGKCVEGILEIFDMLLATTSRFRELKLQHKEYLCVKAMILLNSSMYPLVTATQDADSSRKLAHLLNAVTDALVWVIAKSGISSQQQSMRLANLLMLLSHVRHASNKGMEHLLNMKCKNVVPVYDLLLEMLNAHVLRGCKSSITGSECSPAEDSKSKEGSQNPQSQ

| Ki (Estrogen receptor beta [1]) [nM] | Ki (Estrogen receptor [3]) [nM] | Structure (SMILES) | IC50 (Estrogen receptor [2]) [nM] | IC50 (Estrogen receptor beta [4]) [nM] |
| --- | --- | --- | --- | --- |
| 139 | 2220 | Oc1ccc(-c2c(-c3ccccc3)nn3c(C(F)(F)F)cc(C(F)(F)F)nc23)cc1 | – | – |
| 178 | 47 | CN(C)CCOc1ccc(-c2c(-c3ccc(O)cc3)nn3c(C(F)(F)F)cc(C(F)(F)F)nc23)cc1 | 1000 | 250 |
| 156 | 408 | CN(C)CCOc1ccc(-c2nn3c(C(F)(F)F)cc(C(F)(F)F)nc3c2-c2ccc(O)cc2)cc1 | – | – |
| 192 | 266 | Oc1ccc(-c2c(-c3ccc(OCCN4CCCCC4)cc3)nn3c(C(F)(F)F)cc(C(F)(F)F)nc23)cc1 | – | – |
| 1520 | 3330 | Oc1ccc(-c2nn3cc(O)cnc3c2-c2ccc(O)cc2)cc1 | – | – |
| 122 | 51 | Oc1ccc(-c2nn3c(C(F)(F)F)cc(C(F)(F)F)nc3c2-c2ccccc2)cc1 | – | – |

| Structure (SMILES) | Ki (Estrogen receptor beta [1]) [nM] | Ki (Estrogen receptor [3]) [nM] | IC50 (Estrogen receptor [2]) [nM] | IC50 (Estrogen receptor beta [4]) [nM] |
| --- | --- | --- | --- | --- |
| Oc1ccc(-c2nn3c(C(F)(F)F)cc(C(F)(F)F)nc3c2-c2ccc(OCCN3CCCCC3)cc2)cc1 | 71 | 7 | 90 | 40 |
| Oc1ccc(-c2nn3c(C(F)(F)F)cc(C(F)(F)F)nc3c2-c2ccc(O)cc2)cc1 | 48 | 26 | 6000 | 600 |

From ChEMBL document CHEMBL1139848, “Structure-guided optimization of estrogen receptor binding affinity and antagonist potency of pyrazolopyrimidines with basic side chains” (J Med Chem, 2007)
